{"source": "patent US9422293B2", "about": "(priority 2006, dated 2016)", "note": "Counter-ions that a name gives are not always drawn."}
{"target": "rat TRPV1 (Rattus norvegicus (Rat), UniProt O35433)", "sequence (O35433 whole entry)": "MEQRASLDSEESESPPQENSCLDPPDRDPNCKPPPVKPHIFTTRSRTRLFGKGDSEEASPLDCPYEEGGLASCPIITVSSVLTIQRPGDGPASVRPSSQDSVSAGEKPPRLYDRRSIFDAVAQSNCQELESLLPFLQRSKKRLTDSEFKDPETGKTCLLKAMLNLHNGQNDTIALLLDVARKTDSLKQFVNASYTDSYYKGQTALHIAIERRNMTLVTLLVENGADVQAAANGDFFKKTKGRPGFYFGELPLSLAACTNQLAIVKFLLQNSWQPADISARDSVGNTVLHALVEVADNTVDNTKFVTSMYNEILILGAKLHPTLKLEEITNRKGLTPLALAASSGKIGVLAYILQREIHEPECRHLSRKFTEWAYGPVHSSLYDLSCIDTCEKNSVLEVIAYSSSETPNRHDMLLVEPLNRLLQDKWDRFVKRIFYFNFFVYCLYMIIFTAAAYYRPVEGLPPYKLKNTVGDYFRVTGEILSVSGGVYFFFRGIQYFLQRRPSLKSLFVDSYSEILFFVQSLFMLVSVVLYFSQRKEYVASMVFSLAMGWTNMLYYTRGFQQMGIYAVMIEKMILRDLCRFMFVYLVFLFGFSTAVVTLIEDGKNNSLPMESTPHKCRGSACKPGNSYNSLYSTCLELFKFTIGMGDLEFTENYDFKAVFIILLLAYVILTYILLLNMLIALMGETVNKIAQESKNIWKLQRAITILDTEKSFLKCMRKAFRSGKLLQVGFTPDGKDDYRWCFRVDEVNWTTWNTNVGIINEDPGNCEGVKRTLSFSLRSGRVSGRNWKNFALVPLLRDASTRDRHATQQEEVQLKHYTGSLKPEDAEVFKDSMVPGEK", "details": "read-out: Rat IC50", "units": {"IC50": "nM"}}
{"smiles": "FC(F)(F)c1ccc(Nc2nc(-c3ccncc3)nc3c2CCN(c2ncccc2C(F)(F)F)CC3)cc1Cl", "note": "[Example 169, N-[3-Chloro-4-(trifluoromethyl)phenyl]-2-pyridin-4-yl-7-[3-(trifluoromethyl)pyridin-2-yl]-6,7,8,9-tetrahydro-5H-pyrimido[4,5-d]azepin-4-amine]", "IC50": 1010}
{"smiles": "CC(C)(C)c1ccc(Nc2nc(N3CCCCC3)nc3c2CCN(c2ncccc2C(F)(F)F)CC3)cc1[N+](=O)[O-]", "note": "[Example 159, N-[4-(1,1-Dimethylethyl)-3-nitrophenyl]-2-piperidin-1-yl-7-[3-(trifluoromethyl)pyridin-2-yl]-6,7,8,9-tetrahydro-5H-pyrimido[4,5-d]azepin-4-amine]", "IC50": 30}
{"smiles": "CC(C)c1nc2c(c(NCCc3ccccc3Br)n1)CCN(c1ncccc1C(F)(F)F)CC2", "note": "[Example 119, N-[2-(2-Bromophenyl)ethyl]-2-(1-methylethyl)-7-[3-(trifluoromethyl)pyridin-2-yl]-6,7,8,9-tetrahydro-5H-pyrimido[4,5-d]azepin-4-amine]", "IC50": 1220}
{"smiles": "CC(C)c1nc2c(c(Nc3ccc4c(c3)CCC4)n1)CCN(c1ncccc1C(F)(F)F)CC2", "note": "[Example 141, N-(2,3-Dihydro-1H-inden-5-yl)-2-(1-methylethyl)-7-[3-(trifluoromethyl)pyridin-2-yl]-6,7,8,9-tetrahydro-5H-pyrimido[4,5-d]azepin-4-amine hydrochloride salt]", "IC50": 130}
{"smiles": "CC(C)Sc1nc2c(c(Nc3ccc4c(c3)N(C)CCC4(C)C)n1)CCN(c1ncccc1C(F)(F)F)CC2", "note": "[Example 372, 2-[(1-Methylethyl)sulfanyl]-7-[3-(trifluoromethyl)pyridin-2-yl]-N-(1,4,4-trimethyl-1,2,3,4-tetrahydroquinolin-7-yl)-6,7,8,9-tetrahydro-5H-pyrimido[4,5-d]azepin-4-amine]", "IC50": 330}
{"smiles": "FC(F)(F)c1ccc(Nc2nc(-c3ccncc3)nc3c2CCN(c2ncccc2C(F)(F)F)CC3)cn1", "note": "[Example 170, 2-Pyridin-4-yl-7-[3-(trifluoromethyl)pyridin-2-yl]-N-[6-(trifluoromethyl)pyridin-3-yl]-6,7,8,9-tetrahydro-5H-pyrimido[4,5-d]azepin-4-amine trifluoroacetic acid salt]", "IC50": 60}
{"smiles": "FC(F)(F)c1cccnc1N1CCc2nc(C3CC3)nc(Nc3ccc(Cl)cc3)c2CC1", "note": "[Example 4, (4-Chloro-phenyl)-[2-cyclopropyl-7-(3-trifluoromethyl-pyridin-2-yl)-6,7,8,9-tetrahydro-5H-pyrimido[4,5-d]azepin-4-yl]-amine]", "IC50": 500}
{"smiles": "Fc1cc(C(F)(F)F)ccc1Nc1nc(N2CCCCC2)nc2c1CCN(c1ncccc1C(F)(F)F)CC2", "note": "[Example 166]", "IC50": 380}
{"smiles": "CC(Oc1nc2c(c(Nc3ccc(S(=O)(=O)C(F)(F)F)cc3)n1)CCN(c1ncccc1C(F)(F)F)CC2)C1CC1", "note": "(stereo not drawn) [Example 317, 2-[(1-Cyclopropylethyl)oxy]-7-[3-(trifluoromethyl)pyridin-2-yl]-N-{4-[(trifluoromethyl)sulfonyl]phenyl}-6,7,8,9-tetrahydro-5H-pyrimido[4,5-d]azepin-4-amine]", "IC50": 610}
{"smiles": "CC(C)c1nc2c(c(Nc3ccc(C(F)(F)F)cc3)n1)CCN(c1ncccc1[N+](=O)[O-])CC2", "note": "[Example 88, [2-Isopropyl-7-(3-nitro-pyridin-2-yl)-6,7,8,9-tetrahydro-5H-pyrimido[4,5-d]azepin-4-yl]-(4-trifluoromethyl-phenyl)-amine]", "IC50": 960}
{"smiles": "CC(C)c1nc2c(c(Nc3ccc(-c4cnco4)cc3)n1)CCN(c1ncccc1C(F)(F)F)CC2", "note": "[Example 142, 2-(1-Methylethyl)-N-[4-(1,3-oxazol-5-yl)phenyl]-7-[3-(trifluoromethyl)pyridin-2-yl]-6,7,8,9-tetrahydro-5H-pyrimido[4,5-d]azepin-4-amine]", "IC50": 2090}
{"smiles": "CC(Oc1nc2c(c(Nc3ccc(S(=O)(=O)C(F)(F)F)cc3)n1)CCN(c1ncccc1C(F)(F)F)CC2)C1CCCCC1", "note": "(stereo not drawn) [Example 318, 2-[(1-Cyclohexylethyl)oxy]-7-[3-(trifluoromethyl)pyridin-2-yl]-N-{4-[(trifluoromethyl)sulfonyl]phenyl}-6,7,8,9-tetrahydro-5H-pyrimido[4,5-d]azepin-4-amine]", "IC50": "> 6670"}
{"smiles": "CC(C)(C)c1ccc(Nc2nc(N[C@@H]3CCOC3)nc3c2CCN(c2ncccc2C(F)(F)F)CC3)cc1", "note": "[Example 264, N^4-[4-(1,1-Dimethylethyl)phenyl]-N^2-[(3R)-tetrahydrofuran-3-yl]-7-[3-(trifluoromethyl)pyridin-2-yl]-6,7,8,9-tetrahydro-5H-pyrimido[4,5-d]azepine-2,4-diamine]", "IC50": 1300}
{"smiles": "FC(F)(F)c1ccc(Nc2nc(C3CC3)nc3c2CCN(c2ncccc2C(F)(F)F)CC3)cc1", "note": "[Example 5, [2-Cyclopropyl-7-(3-trifluoromethyl-pyridin-2-yl)-6,7,8,9-tetrahydro-5H-pyrimido[4,5-d]azepin-4-yl]-(4-trifluoromethyl-phenyl)-amine]", "IC50": 150}
{"smiles": "COCCNc1nc2c(c(Nc3ccc(C(F)(F)F)cc3)n1)CCN(c1ncccc1C(F)(F)F)CC2", "note": "[Example 213, N^2-[2-(Methyloxy)ethyl]-N^4-[4-(trifluoromethyl)phenyl]-7-[3-(trifluoromethyl)pyridin-2-yl]-6,7,8,9-tetrahydro-5H-pyrimido[4,5-d]azepine-2,4-diamine trifluoroacetic acid salt]", "IC50": 110}
{"smiles": "COCc1nc2c(c(Nc3ccc(C(C)(C)C#N)cc3)n1)CCN(c1ncccc1C(F)(F)F)CC2", "note": "[Example 347, 2-Methyl-2-[4-({2-[(methyloxy)methyl]-7-[3-(trifluoromethyl)pyridin-2-yl]-6,7,8,9-tetrahydro-5H-pyrimido[4,5-d]azepin-4-yl}amino)phenyl]propanenitrile trifluoroacetic acid salt]", "IC50": 1320}
{"smiles": "CC(C)c1nc2c(c(Nc3ccc(C(F)(F)F)cc3)n1)CCN(c1ncccc1S(C)(=O)=O)CC2", "note": "[Example 36, [2-Isopropyl-7-(3-methanesulfonyl-pyridin-2-yl)-6,7,8,9-tetrahydro-5H-pyrimido[4,5-d]azepin-4-yl]-(4-trifluoromethyl-phenyl)-amine]", "IC50": 370}
{"smiles": "CC(C)c1nc2c(c(Nc3ccc(C(C)(C)O)cc3)n1)CCN(c1ncccc1C(F)(F)F)CC2", "note": "[Example 178, 2-[4-({2-(1-Methylethyl)-7-[3-(trifluoromethyl)pyridin-2-yl]-6,7,8,9-tetrahydro-5H-pyrimido[4,5-d]azepin-4-yl}amino)phenyl]propan-2-ol]", "IC50": 110}
{"smiles": "FC(F)(F)c1ccc(Nc2nc(Oc3ccccc3)nc3c2CCN(c2ncccc2C(F)(F)F)CC3)cc1", "note": "[Example 342, 2-(Phenyloxy)-N-[4-(trifluoromethyl)phenyl]-7-[3-(trifluoromethyl)pyridin-2-yl]-6,7,8,9-tetrahydro-5H-pyrimido[4,5-d]azepin-4-amine trifluoroacetic acid salt]", "IC50": 60}
{"smiles": "CC(C)(C)c1ccc(Nc2nc(-c3ccoc3)nc3c2CCN(c2ncccc2C(F)(F)F)CC3)cc1", "note": "[Example 147, N-[4-(1,1-Dimethylethyl)phenyl]-2-furan-3-yl-7-[3-(trifluoromethyl)pyridin-2-yl]-6,7,8,9-tetrahydro-5H-pyrimido[4,5-d]azepin-4-amine]", "IC50": 110}
{"smiles": "CC(C)c1nc2c(c(Nc3ccc(C(F)(F)F)cc3)n1)CCN(c1ccccc1[N+](=O)[O-])CC2", "note": "[Example 85, [2-Isopropyl-7-(2-nitro-phenyl)-6,7,8,9-tetrahydro-5H-pyrimido[4,5-d]azepin-4-yl]-(4-trifluoromethyl-phenyl)-amine]", "IC50": "> 6700"}
